This assay addresses human TREX1 (Homo sapiens (Human), UniProt Q9NSU2). Description: TREX1 Exonuclease Assay. Format: biochemical. As for the experimental part:
For human TREX1, the nucleotide sequence of the gene construct was codon optimized for expression in the bacterial host. The sequence was incorporated into the pMAL-c5e vector (NEB) downstream of a solubility-promoting MBP (maltose binding protein) fusion partner. The fusion protein product was expressed in E. coli strain BL21 (DE3) (Millipore) and purified in a series of chromatographic steps. Initial steps were conducted using a dextrin sepharose affinity column followed by a Q-sepharose ion exchange column (both GE Healthcare). After the second column the MBP partner was removed by incubation with enterokinase (NEB). Further purification was carried out with the second application of a Q-sepharose column followed by a Superdex 75 (GE Healthcare) size exclusion column. Finally, a heparin sepharose column (GE Healthcare) was applied to remove contaminating nucleotides.
To evaluate the effect of compounds on TREX1 activity, test compounds were serially diluted (11-point, 3-fold) from 10 mM stock solutions and delivered to 384-well low-volume assay plates in 80 nL DMSO using an acoustic dispenser. Next, 4 μL of human TREX1 (0.5 nM), or murine TREX1 (1 nM), diluted in assay buffer (20 mM Tris pH 7.5, 5 mM MgCl2, 100 μg/mL BSA, 0.002% Triton X-100, 2 mM DTT), was added to the assay plate. After incubating for 30 minutes, 4 μL of labeled DNA oligonucleotide (500 nM) in assay buffer was added to initiate TREX1 exonuclease activity. The reaction was allowed to proceed for 45 minutes at room temperature prior to the addition of 4 μL of 150 mM EDTA to halt TREX1 activity.
Sequence of human TREX1 (Q9NSU2 whole entry, the tested form may be a part): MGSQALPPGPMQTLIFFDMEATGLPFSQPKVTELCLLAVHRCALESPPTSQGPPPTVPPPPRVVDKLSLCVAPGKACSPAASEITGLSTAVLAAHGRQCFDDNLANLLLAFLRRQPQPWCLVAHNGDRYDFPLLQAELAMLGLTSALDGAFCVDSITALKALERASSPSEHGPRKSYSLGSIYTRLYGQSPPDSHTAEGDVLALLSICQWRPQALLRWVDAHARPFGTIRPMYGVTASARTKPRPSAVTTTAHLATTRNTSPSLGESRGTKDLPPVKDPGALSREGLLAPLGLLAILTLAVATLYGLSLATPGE
In the case of `NC(=O)CC[C@H](C(=O)N1Cc2cc(Cl)c(Cl)cc2C1)N1CCC(CCc2ccccc2)N2C[C@H](N)C[C@H]2C1=O` (stereo partly drawn) [Example 20], the IC50 (commonly the concentration that gives 50% inhibition) fell in the range of 10000 to 100000 nM.

For `COc1cc(Cl)c(Cl)cc1CNC(=O)[C@@H](CCC(=O)O)N1CCC(CCc2ccccc2)N2C[C@H](N)C[C@H]2C1=O` (stereo partly drawn) [Example 21], the IC50 is less than 1000 nM. Molecule `NC(=O)C[C@H](C(=O)NCc1ccc(Cl)c(Cl)c1)N1CCC(CCc2ccccc2)N2C[C@H](N)C[C@H]2C1=O` (stereo partly drawn) [Example 23] had an IC50 of less than 1000 nM.

`N=C(N)NCCC[C@H](C(=O)NCc1ccc(Cl)c(Cl)c1)N1CCC(CCc2ccccc2)N2C[C@H](N)C[C@H]2C1=O` (stereo partly drawn) [Example 24] displayed an IC50 of less than 1000 nM. Take `N[C@@H]1C[C@H]2C(=O)N([C@H](CCC(=O)O)C(=O)NCc3ccc(Cl)c(Cl)n3)CCC(CCc3ccccc3)N2C1` (stereo partly drawn) [Example 25]: the concentration for half-maximal inhibition (IC50) was less than 1000 nM. For `N[C@@H]1C[C@H]2C(=O)N([C@H](CCC(=O)O)C(=O)N3CCCC[C@H]3c3ccc(Cl)c(Cl)c3)CCC(CCc3ccccc3)N2C1` (stereo partly drawn) [Example 26], the IC50 was less than 1000 nM. The molecule `N[C@@H]1C[C@H]2C(=O)N([C@H](CCC(=O)O)C(=O)N3CCC[C@H]3c3ccc(Cl)c(Cl)c3)CCC(CCc3ccccc3)N2C1` (stereo partly drawn) [Example 27] gave an IC50 of less than 1000 nM. As to `N[C@@H]1C[C@H]2C(=O)N([C@H](CCC(=O)O)C(=O)NCc3cc(Cl)c(Cl)cn3)CCC(CCc3ccccc3)N2C1` (stereo partly drawn) [Example 28], the IC50 is less than 1000 nM. Consider `N[C@@H]1C[C@H]2C(=O)N([C@H](CCC(=O)O)C(=O)NCc3cc(Cl)c(Cl)cc3F)CCC(CCc3ccccc3)N2C1` (stereo partly drawn) [Example 31], for which the IC50 was less than 1000 nM. As to `N[C@@H]1C[C@H]2C(=O)N([C@H](CCC(=O)O)C(=O)N3CCOC[C@H]3c3ccc(Cl)c(Cl)c3)CCC(CCc3ccccc3)N2C1` (stereo partly drawn) [Example 32], the IC50 is less than 1000 nM. Take `N[C@@H]1C[C@H]2C(=O)N([C@H]3CCN(Cc4ccc(Cl)c(Cl)c4)C3=O)CCC(CCc3ccccc3)N2C1` (stereo partly drawn) [Example 33]: the IC50 is less than 1000 nM. The same measure for `N[C@@H]1C[C@H]2C(=O)N([C@H]3CCCN(Cc4ccc(Cl)c(Cl)c4)C3=O)CCC(CCc3ccccc3)N2C1` (stereo partly drawn) [Example 34]: less than 1000 nM; for `N[C@@H]1C[C@H]2C(=O)N([C@@H]3CCCN(Cc4ccc(Cl)c(Cl)c4)C3=O)CCC(CCc3ccccc3)N2C1` (stereo partly drawn) [Example 35]: less than 1000 nM; for `NC(=O)C[C@H](C(=O)NCc1ccc(Cl)c(Cl)n1)N1CCC(CCc2ccccc2)N2C[C@H](N)C[C@H]2C1=O` (stereo partly drawn) [Example 36]: less than 1000 nM. `Cn1c(Cl)ccc(CNC(=O)[C@@H](CCC(=O)O)N2CCC(CCc3ccccc3)N3C[C@H](N)C[C@H]3C2=O)c1=O` (stereo partly drawn) [Example 37] showed an IC50 of less than 1000 nM. Then `N[C@@H]1C[C@H]2C(=O)N(c3cccn(Cc4ccc(Cl)c(Cl)c4)c3=O)CCC(CCc3ccccc3)N2C1` (stereo partly drawn) [Example 38], with less than 1000 nM. As to `CC(C)C[C@H](C(=O)NCc1cccc(Cl)c1)N1CCC(CCc2ccccc2)N2C[C@H](N)C[C@H]2C1=O` (stereo partly drawn) [Example 43], the IC50 fell in the range of 1000 to 9990 nM. Regarding `CC(C)C[C@H](C(=O)NCc1ccccc1Cl)N1CCC(CCc2ccccc2)N2C[C@H](N)C[C@H]2C1=O` (stereo partly drawn) [Example 44], the IC50 was less than 1000 nM. The same measure for `CC(C)C[C@H](C(=O)NCc1ccc(Cl)cc1Cl)N1CCC(CCc2ccccc2)N2C[C@H](N)C[C@H]2C1=O` (stereo partly drawn) [Example 48]: 1000 to 9990 nM; for `CC(C)C[C@H](C(=O)NCc1ccc(C#N)cc1)N1CCC(CCc2ccccc2)N2C[C@H](N)C[C@H]2C1=O` (stereo partly drawn) [Example 49]: less than 1000 nM. Consider `CC(C)C[C@H](C(=O)NCc1cc(Cl)cc(Cl)c1)N1CCC(CCc2ccccc2)N2C[C@H](N)C[C@H]2C1=O` (stereo partly drawn) [Example 50], for which the IC50 was 1000 to 9990 nM. Then `CC(C)C[C@H](C(=O)NCc1ccc(F)c(F)c1)N1CCC(CCc2ccccc2)N2C[C@H](N)C[C@H]2C1=O` (stereo partly drawn) [Example 53], with less than 1000 nM; and `CC(C)C[C@H](C(=O)NCc1ccc(Cl)c(F)c1)N1CCC(CCc2ccccc2)N2C[C@H](N)C[C@H]2C1=O` (stereo partly drawn) [Example 54], with less than 1000 nM; and `CC(C)C[C@H](C(=O)NCc1ccc(Cl)c(C(F)(F)F)c1)N1CCC(CCc2ccccc2)N2C[C@H](N)C[C@H]2C1=O` (stereo partly drawn) [Example 55], with less than 1000 nM. `CC(C)C[C@H](C(=O)NCc1ccc(C(F)(F)F)c(F)c1)N1CCC(CCc2ccccc2)N2C[C@H](N)C[C@H]2C1=O` (stereo partly drawn) [Example 56] gave an IC50 of less than 1000 nM. For `Cc1ccc(CNC(=O)[C@@H](CC(C)C)N2CCC(CCc3ccccc3)N3C[C@H](N)C[C@H]3C2=O)cc1Cl` (stereo partly drawn) [Example 57], the IC50 was less than 1000 nM. In turn, `COc1ccc(CNC(=O)[C@@H](CC(C)C)N2CCC(CCc3ccccc3)N3C[C@H](N)C[C@H]3C2=O)cc1Cl` (stereo partly drawn) [Example 58] had an IC50 of less than 1000 nM. The same measure for `COc1ccc(CNC(=O)[C@@H](CC(C)C)N2CCC(CCc3ccccc3)N3C[C@H](N)C[C@H]3C2=O)cc1` (stereo partly drawn) [Example 59]: less than 1000 nM; for `CC(C)C[C@H](C(=O)N(C)Cc1ccc(Cl)c(Cl)c1)N1CCC(CCc2ccccc2)N2C[C@H](N)C[C@H]2C1=O` (stereo partly drawn) [Example 60]: less than 1000 nM. In the case of `CC(C)C[C@H](C(=O)NS(=O)(=O)c1ccccc1)N1CCC(CCc2ccccc2)N2C[C@H](N)C[C@H]2C1=O` (stereo partly drawn) [Example 61], the IC50 was less than 1000 nM. In turn, `CC(C)C[C@H](C(=O)NS(=O)(=O)c1ccc(Cl)c(Cl)c1)N1CCC(CCc2ccccc2)N2C[C@H](N)C[C@H]2C1=O` (stereo partly drawn) [Example 62] showed an IC50 of 1000 to 9990 nM. Then `N#CC[C@H](C(=O)NCc1ccc(Cl)cn1)N1CCC(CCc2ccccc2)N2C[C@H](N)C[C@H]2C1=O` (stereo partly drawn) [Example 63, (2R)-2-((8R,9aS)-8-amino-1-oxo-5-phenethylhexahydro-1H-pyrrolo[1,2-a][1,4]diazepin-2(3H)-yl)-N-((5-chloropyridin-2-yl)methyl)-3-cyanopropanamide.HCOOH], with less than 1000 nM; and `N#CC[C@H](C(=O)NCc1ccc(Cl)c(C(F)(F)F)c1)N1CCC(CCc2ccccc2)N2C[C@H](N)C[C@H]2C1=O` (stereo partly drawn) [Example 64], with less than 1000 nM; and `CN(Cc1ccc(Cl)c(Cl)c1)C(=O)[C@@H](CC#N)N1CCC(CCc2ccccc2)N2C[C@H](N)C[C@H]2C1=O` (stereo partly drawn) [Example 65], with less than 1000 nM. Consider `N#CC[C@H](C(=O)N1CCc2cc(Cl)c(Cl)cc2C1)N1CCC(CCc2ccccc2)N2C[C@H](N)C[C@H]2C1=O` (stereo partly drawn) [Example 66], for which the IC50 was in the range of 1000 to 9990 nM. Then `N#CC[C@H](C(=O)N1CCc2c(ccc(Cl)c2Cl)C1)N1CCC(CCc2ccccc2)N2C[C@H](N)C[C@H]2C1=O` (stereo partly drawn) [Example 67], with 1000 to 9990 nM. `N#CC[C@H](C(=O)N1CCOC[C@@H]1c1ccccc1)N1CCC(CCc2ccccc2)N2C[C@H](N)C[C@H]2C1=O` (stereo partly drawn) [Example 68] displayed an IC50 of 10000 to 100000 nM. As to `N#CC[C@H](C(=O)N1CCOC[C@H]1c1ccccc1)N1CCC(CCc2ccccc2)N2C[C@H](N)C[C@H]2C1=O` (stereo partly drawn) [Example 69], the IC50 lay within 1000 to 9990 nM. The molecule `N[C@@H]1C[C@H]2C(=O)N([C@H](CCC(=O)O)C(=O)NCc3ccc(Cl)cn3)CCC(CCc3ccccc3)N2C1` (stereo partly drawn) [Example 70, (4R)-4-((8R,9aS)-8-amino-1-oxo-5-phenethylhexahydro-1H-pyrrolo[1,2-a][1,4]diazepin-2(3H)-yl)-5-(((5-chloropyridin-2-yl)methyl)amino)-5-oxopentanoic Acid] returned an IC50 of less than 1000 nM.

(Values after patent US11583538B2, “Substituted pyrrolo[1,2-a]pyrazines and pyrrolo[1,2-a][1,4]diazepines as TREX1 inhibitors” (Venenum Biodesign, LLC, priority 2019, dated 2023).)
